The values that follow come from ChEMBL document CHEMBL1129627, “Nonlinear quantitative structure-activity relationship for the inhibition of dihydrofolate reductase by pyrimidines” (J Med Chem, 1996).

The target in this assay is T1, Dihydrofolate reductase (Escherichia coli, UniProt P0ABQ4).
T1 sequence (P0ABQ4 whole entry): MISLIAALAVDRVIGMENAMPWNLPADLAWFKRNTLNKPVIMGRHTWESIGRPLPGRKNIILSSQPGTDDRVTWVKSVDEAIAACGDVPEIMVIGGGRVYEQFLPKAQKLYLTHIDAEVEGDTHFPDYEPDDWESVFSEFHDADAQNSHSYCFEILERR
Description: Negative logarithm of inhibition constant (-log Ki) against Dihydrofolate reductase in Escherichia coli

What is called Ki is a dissociation constant, usually derived from enzyme kinetics or from competition with a known ligand. In the case of `COc1cc(CC2CN=C(N)N=C2N)ccc1OS(C)(=O)=O` (stereo unspecified), the Ki was 11.5 nM.

Consider `COCCCCCCCOc1cc(CC2CN=C(N)N=C2N)ccc1OC` (stereo unspecified), for which the Ki was 69.2 nM.

As to `COc1cc(CC2CN=C(N)N=C2N)cc(OC)c1Br` (stereo unspecified), the Ki was 6.61 nM.

As for `COCCC(=O)c1ccc(CC2CN=C(N)N=C2N)cc1C(=O)CCOC` (stereo unspecified), the affinity, expressed as Ki, was 60.3 nM.

Take `CS(=O)(=O)Oc1cccc(CC2CN=C(N)N=C2N)c1` (stereo unspecified): affinity was put at a Ki of 120 nM.

Take `CCCOc1cc(CC2CN=C(N)N=C2N)cc(OCCC)c1` (stereo unspecified): affinity was put at a Ki of 38.9 nM.

`NC1=NCC(Cc2cc(Br)c(N)c(Br)c2)C(N)=N1` (stereo unspecified): the affinity, expressed as Ki, was 1.41 nM.

`COc1cc(CC2CN=C(N)N=C2N)cc(OC)c1OCc1ccccc1` (stereo unspecified): the Ki was 3.8 nM.

Turning to `COc1ccc(CC2CN=C(N)N=C2N)cc1O` (stereo unspecified), the Ki was 145 nM.

`COc1c(I)cc(CC2CN=C(N)N=C2N)cc1I` (stereo unspecified) gave a Ki of 1.51 nM.

The compound `CCCCCCCCOc1c(OC)cc(CC2CN=C(N)N=C2N)cc1OC` (stereo unspecified) gave a Ki of 13.5 nM.

Compound `COc1cc(CC2CN=C(N)N=C2N)ccc1Cc1ccccc1` (stereo unspecified) had a Ki of 29.5 nM.

Consider `COc1c(C)cc(CC2CN=C(N)N=C2N)cc1C` (stereo unspecified), for which the affinity, expressed as Ki, was 18.2 nM.

With `COc1ccc(CC2CN=C(N)N=C2N)cc1C(F)(F)F` (stereo unspecified), the affinity, expressed as Ki, was 20.4 nM.

Regarding `COCCc1c(OC)cc(CC2CN=C(N)N=C2N)cc1OC` (stereo unspecified), the affinity corresponds to a Ki of 4.47 nM.

The compound `COCCCCCCCOc1c(OC)cc(CC2CN=C(N)N=C2N)cc1OC` (stereo unspecified) gave a Ki of 63.1 nM.

As to `NC1=NCC(Cc2ccc(OCc3ccccc3)cc2)C(N)=N1` (stereo unspecified), the Ki was 129 nM.

With `COc1cc(CC2CN=C(N)N=C2N)cc(OC)c1C` (stereo unspecified), the Ki is 2.69 nM.

`Cc1cc(CC2CN=C(N)N=C2N)cc(Cl)c1N` (stereo unspecified): the affinity corresponds to a Ki of 1.35 nM.

`CC(=O)Nc1ccc(CC2CN=C(N)N=C2N)cc1[N+](=O)[O-]` (stereo unspecified) showed a Ki of 107 nM.

The compound `CCCCCCOc1c(OC)cc(CC2CN=C(N)N=C2N)cc1OC` (stereo unspecified) showed a Ki of 13.5 nM.

Regarding `NC1=NCC(Cc2cc(Cl)c(N)c(Cl)c2)C(N)=N1` (stereo unspecified), the Ki is 1.35 nM.

`NC1=NCC(Cc2ccc([N+](=O)[O-])cc2)C(N)=N1` (stereo unspecified) showed a Ki of 631 nM.

On to `Cc1cc(CC2CN=C(N)N=C2N)cc(C)c1O` (stereo unspecified), for which the Ki is 27.5 nM.

Regarding `Cc1cc(C)cc(CC2CN=C(N)N=C2N)c1` (stereo unspecified), the Ki is 91.2 nM.

`NC1=NCC(Cc2ccc3c(c2)OCCO3)C(N)=N1` (stereo unspecified) had a Ki of 74.1 nM.

`COc1ccc(CC2CN=C(N)N=C2N)cc1OS(C)(=O)=O` (stereo unspecified) had a Ki of 15.8 nM.

`NC1=NCC(Cc2ccc(O)cc2)C(N)=N1` (stereo unspecified): the affinity corresponds to a Ki of 355 nM.

With `NC1=NCC(Cc2ccc(OC(F)(F)F)cc2)C(N)=N1` (stereo unspecified), the Ki is 269 nM.

Regarding `CCCCCCOc1cccc(CC2CN=C(N)N=C2N)c1` (stereo unspecified), the Ki was 138 nM.

Turning to `COc1cc(CC2CN=C(N)N=C2N)ccc1O` (stereo unspecified), the affinity, expressed as Ki, was 28.8 nM.

In turn, `COc1ccc(CC2CN=C(N)N=C2N)cc1OCc1ccccc1` (stereo unspecified) showed a Ki of 21.9 nM.

Take `CS(=O)(=O)Oc1ccc(CC2CN=C(N)N=C2N)cc1` (stereo unspecified): the Ki was 251 nM.

In turn, `COCCOc1ccc(CC2CN=C(N)N=C2N)cc1OC` (stereo unspecified) showed a Ki of 17 nM.

`NC1=NCC(Cc2cc(I)c(O)c(I)c2)C(N)=N1` (stereo unspecified) gave a Ki of 1.51 nM.

On to `CCc1cc(CC2CN=C(N)N=C2N)cc(CC)c1CC` (stereo unspecified), for which the Ki was 15.1 nM.
